What was measured:
rgRSV224 virus = assay: Antiviral activity: rgRSV224 (GFP) replication in HeLa cells; type: cell-based, respiratory syncytial virus (RSV); details: for EC50: human respiratory syncytial virus, HeLa, 72 h, read-out: RSV HELA pEC50, rgRSV224 virus (MOI=1), HeLa cells, GFP expression, three days post-virus exposure (converted)
Protocol: Black 384-well clear-bottom microtiter plates (Corning, Amsterdam, The Netherlands) were filled via acoustic drop ejection using the echo liquid handler (Labcyte, Sunnyvale, Calif.), 200 nL of compound stock solutions (100% DMSO) were transferred to the assay plates, 9 serial 4-fold dilutions of compound were made, creating per quadrant the same compound concentration. The assay was initiated by adding 10 μL of culture medium to each well (RPMI medium without phenol red, 10% FBS-heat inactivated, 0.04% gentamycin (50 mg/mL). All addition steps are done by using a multidrop dispenser (Thermo Scientific, Erembodegem, Belgium). Next, rgRSV224 virus (MOI=1) diluted in culture medium was added to the plates, rgRSV224 virus is an engineered virus that includes an additional GFP gene (Hallak L K, Spillmann D. Collins P L, Peeples M E.
(§1) Glycosaminoglycan sulfation requirements for respiratory syncytial virus infection; Journal of virology (2000), 74(22), 10508-13) and was in-licensed from the NIH (Bethesda, Md., USA). Finally, 20 μL of a HeLa cell suspension (3,000 cells/well) were plated. Medium, virus- and mock-infected controls were included in each test. The wells contain 0.05% DMSO per volume. Cells were incubated at 37° C. in a 5% CO2 atmosphere. Three days post-virus exposure, viral replication was quantified by measuring GFP expression in the cells by an in house developed MSM laser microscope (Tibotec. Beerse, Belgium). The EC50 was defined as the 50% inhibitory concentration for GFP expression. In parallel, compounds were incubated for three days in a set of white 384-well microtiter plates (Corning) and the cytotoxicity of compounds in HeLa cells was determined by measuring the ATP content of the cells using the ATPlite kit (PerkinElmer, Zaventem, Belgium) according to the manufacturer's instructions. The CC50 was defined as the 50% concentration for cytotoxicity.

HeLa cells = assay: Cytotoxicity in HeLa cells (ATP content, ATPlite kit); type: cell-based; details: three days incubation
Protocol: as §1

[1] = Cytotoxicity in HeLa cells (ATP content, ATPlite kit); type: cell-based; details: human, three days incubation, read-out: TOX HELA pCC50 (converted)
Protocol: as §1

Structure (SMILES)	RSV HELA pEC50 (rgRSV224 virus; rgRSV224 virus (MOI=1), HeLa cells, GFP expression, three days post-virus exposure)	TOX HELA pCC50 (HeLa cells)	melting point [°C]	EC50 (rgRSV224 virus) [µM]	CC50 at 3 days [1] [µM]
COc1ccc(-c2ncccc2N2CCN(c3ccncc3)CC2)cc1 [Compound 4]	6.38	<4.01	216		
c1cnc(-c2ccc3cc[nH]c3c2)c(N2CCN(c3ccncc3)CC2)c1 [Compound 44]			195	0.0324	53.7
c1cnc(-c2ccc3ncsc3c2)c(N2CCN(c3ccncc3)CC2)c1 [Compound 45]			196	0.155	> 100
OCCCn1ccc2cc(-c3ncccc3N3CCN(c4ccncc4)CC3)ccc21 [Compound 46]			110	0.148	52.5
Cn1ccc2cc(C(F)(F)F)c(-c3ncccc3N3CCN(c4ccncc4)CC3)cc21 [Compound 49]			120	0.0676	75.9
OCCCn1c(-c2ncccc2N2CCN(c3ccncc3)CC2)cc2ccccc21 [Compound 50]			110	0.00661	> 100
c1ccc(Oc2nccnc2N2CCN(c3ccncc3)CC2)cc1 [Compound 54]			130	10.7	87.1
c1coc(-c2ccc(-c3nccnc3N3CCN(c4ccncc4)CC3)cc2)c1 [Compound 55]			153.75	0.794	36.3
c1coc(-c2ccc(-c3ncccc3N3CCN(c4ccncc4)CC3)cc2)c1 [Compound 56]			224.32	0.0955	19.5
c1ccc(-c2ccc(-c3ncccc3N3CCN(c4ccncc4)CC3)cc2)cc1 [Compound 59]			98	0.525	10.7
c1cnc(-c2ccc(N3CCCCC3)cc2)c(N2CCN(c3ccncc3)CC2)c1 [Compound 60]			92	0.355	22.9
COc1ccc(-c2ccc(-c3ncccc3N3CCN(c4ccncc4)CC3)cc2)cc1 [Compound 62]			178	0.257	11.5
Cc1ccc(-c2ccc(-c3ncccc3N3CCN(c4ccncc4)CC3)cc2)o1 [Compound 65]			230	0.191	11
OC(c1ccccc1)(c1ccccc1)c1ncccc1N1CCN(c2ccncc2)CC1 [Compound 68]			260	0.0251	> 25.1
c1cnc(N2CCN(c3ccncc3)CC2)c(N2CCN(c3ccncc3)CC2)c1 [Compound 69]			186	0.933	40.7
CC(C)(O)c1ncccc1N1CCN(c2ccncc2)CC1 [Compound 70]			163	19.1	> 100
